Measured values published in PMC4351869 (Journal of neuro-oncology, 2011).

Columns and labels:
recurrent glioblastoma = experiment: Phase II trial NABTC 03-02, progression free survival; format: in vivo, patients; conditions: 2000 mg i.v. twice weekly after resection
[1] = Tumor tissue concentrations of cilengitide at resection, HPLC-MS/MS; format: in vivo, patients; conditions: human, iv
clinical = conditions: human, in vivo, iv
[2] = Treatment-related toxicity in the phase II trial; format: in vivo, patients

CC(C)[C@H]1C(=O)N[C@@H](CCCNC(=N)N)C(=O)NCC(=O)N[C@@H](CC(=O)O)C(=O)N[C@H](Cc2ccccc2)C(=O)N1C [Cilengitide]
6-month PFS rate (recurrent glioblastoma; 26 patients evaluable for efficacy): 12% | median PFS (recurrent glioblastoma; Kaplan-Meier, 95% confidence interval 4–16 weeks): 8 weeks | tissue level at time at 24 h ([1]; 500 mg): 919 ng/g | tissue level at time at 24 h ([1]; 2000 mg): 1410 ng/g | level at 24 h (clinical; 500 mg): 333 ng/mL | level at 24 h (clinical; 2000 mg): 386 ng/mL | tolerability ([2]; 30 patients, 500 or 2000 mg before surgery, 2000 mg i.v. twice weekly after): very well tolerated | dose reductions for toxicity ([2]; in vivo): no dose reductions for toxicity | treatment related deaths ([2]; in vivo): no treatment related deaths | number of grade 3–4 toxicities ([2]; mainly lymphopenia, likely related to prior cytotoxic chemotherapy): 9
